Consider 4 compounds from patent US20060135613A1, “Carboxamides derivatives” (Bayer Healthcare AG, priority 2002, published 2006).

One data set deals with T1, IP receptor (Homo sapiens, UniProt P43119).
T1 construct: HEL cells were collected with centrifugation and washed with cAMP assay buffer; endogenous in cells; host or cells: HEL 92.1.7 (human erythroleukemia, ATCC)
The experiment in a line: Iloprost-induced cAMP production assay in HEL cells (Assay 2). Type of data set: cell-based. The note with it: IP receptor antagonist assay, compounds of about 40 to 90% purity, read-out: Activity grade assay 2. As to the method: [Iloprost-Induced cAMP Production Assay in HEL Cells] (Assay 2)
HEL cells were collected with centrifugation and washed with cAMP assay buffer (CAB: Hank's balanced salt solution, 17 mM Hepes, 0.1% bovine serum albumin, 1 mM IBMX, 0.4% DMSO, and 1 mM L-ascorbic acid sodium salt (pH 7.4)). Cells were suspended at the density of 2.5×10^5 cells/ml in CAB, and twenty thousand cells in 80 μl aliquot of cell suspension were put in a well of 96 well plate (Falcon). Then, 10 μl of compound solution diluted with 1% DMSO in CAB or buffer alone was added. The plate was incubated at 37° C. for 30 min. Then, another 10 μl containing 100 nM iloprost in CAB or buffer alone was added and further incubated at 37° C. for 30 min. cAMP content in the well was measured by a cAMP ELISA kit (Applied Biosystems).
(Cyclic AMP is a second messenger, typically raised through Gs and lowered through Gi signalling.)

T1 sequence (P43119 whole entry): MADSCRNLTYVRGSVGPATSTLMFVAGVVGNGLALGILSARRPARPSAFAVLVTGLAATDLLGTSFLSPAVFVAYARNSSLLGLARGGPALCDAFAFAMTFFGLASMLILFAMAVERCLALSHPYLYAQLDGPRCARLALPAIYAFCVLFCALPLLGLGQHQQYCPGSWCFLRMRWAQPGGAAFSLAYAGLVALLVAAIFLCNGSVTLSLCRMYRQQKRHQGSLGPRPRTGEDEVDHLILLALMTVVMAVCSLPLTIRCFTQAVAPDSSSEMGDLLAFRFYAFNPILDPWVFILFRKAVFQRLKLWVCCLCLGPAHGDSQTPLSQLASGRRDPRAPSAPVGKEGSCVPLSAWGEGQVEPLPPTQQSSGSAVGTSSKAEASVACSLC

Compound `O=C(C#Cc1ccc(COc2ccccc2)cc1)N[C@@H](Cc1ccccc1)C(=O)O` [Example 3, N-(4-Phenoxymethylphenylpropioloyl)phenylalanine] had a melting point of 146 °C. Besides, on IP receptor, the IC50 was less than 100 nM.
On the same counts, the results for `O=C(/C=C/c1ccc(COc2ccccc2)cc1)NC(Cc1ccccc1)C(=O)O` (centres unmarked) [Example 1, N-(4-phenoxymethylcinnamoyl)phenylalanine] are 205 °C and less than 100 nM.
On the same counts, the results for `O=C(CCc1ccc(COc2ccccc2)cc1)N[C@@H](Cc1ccccc1)C(=O)O` [Example 2, N-[3-(4-Phenoxymethylphenyl)propionyl]phenylalanine] are 173 to 174 °C and less than 100 nM.
On the same counts, the results for `O=C(/C=C/c1ccc(OCc2ccccc2)cc1)NC(Cc1ccccc1)C(=O)O` (centres unmarked) [Example 4, N-(4-Benzyloxycinnamoyl)phenylalanine] are 220 °C and less than 100 nM.

Broadly, the melting point is the temperature of the solid-liquid transition.
